{
  "source": "patent US20150105458A1",
  "about": "“LINE LEAF INULA FLOWER LACTONE A AND METHODS FOR PREPARING AND USING THE SAME FOR TREATING MULTIPLE SCLEROSIS” (SHANXI ZHENDONG PILOT BIOLOGICAL SCIENCE AND TECHNOLOGY …, priority 2012, published 2015)",
  "key": {"EAE mice": {"system": "EAE mice", "test": "EAE model in mice, clinical course (onset and severity)", "format": "in vivo, C57BL/6 mice", "conditions": "intragastric administration, 50 mg/kg once per day and higher doses, day 0 to day 30; FIG. 1", "procedure": "(§1) EAE was induced in C57BL/6 mice (six mice per group) by subcutaneous injection of 0.1 ml of […] (in PBS, 300 μg/per mouse) on day 0, emulsified with Complete Freund's adjuvant (1:1) supplemented with Mycobacterium tuberculosis H37Ra antigen (400 μg/per mouse) or with Complete Freund's adjuvant alone as a control. All mice immunized with MOG received 250 ng pertussis toxin prepared in PBS, on days 0 and 2 by intraperitoneal injection.\n(§2) Line leaf inula flower lactone A 45.3 g (from Example 1) was suspended in 0.5% CMC—Na (carboxymethyl cellulose sodium) to make a mixture with final concentration as 10 mg/ml, then diluted to four concentration gradients: (1) 25 mg/kg per day; (2) 50 mg/kg per day; (3) 100 mg/kg per day; (4) 200 mg/kg per day. The drug was given to the mice by intragastric administration from day 0 to day 30."}, "brain tissue of EAE mice": {"system": "brain tissue of EAE mice", "test": "HE staining of brain tissue of EAE mice", "format": "in vivo, C57BL/6 mice", "conditions": "intragastric administration, 50 mg/kg and higher doses; FIG. 2", "procedure": "as §1, §2"}},
  "data": [
    {"smiles": "C=C1C(=O)O[C@H]2C[C@@H](C)[C@@H]3[C@@H](OC(C)=O)C[C@H](O)[C@@]3(C)[C@@H](OC(C)=O)[C@H]12", "note": "[line leaf inula flower lactone A]", "values": [
      {"measurement": "onset of EAE", "setting": "EAE mice", "value": "significantly delay the onset of EAE"},
      {"measurement": "severity of the disease (EAE)", "setting": "EAE mice", "value": "reduced the severity of the disease"},
      {"measurement": "arrangement of the organization (brain tissue, HE staining)", "setting": "brain tissue of EAE mice", "value": "basically returned to normal condition"},
      {"measurement": "inflammatory cells in brain and blood vessels (HE staining)", "setting": "brain tissue of EAE mice", "value": "reduced number of inflammatory cells in brain and blood vessels"}
    ]}
  ]
}
